# Test results: ChEMBL document CHEMBL1134369, “Inhibition of heme detoxification processes underlies the antimalarial activity of terpene isonitrile compounds from marine sponges” (J Med Chem, 2001)
# Test system: Plasmodium falciparum
# Test: Antiplasmodial activity against Plasmodium falciparum D6
# Assay type: functional, organism-based
row,Compound,IC50 [nM]
1,[C-]#[N+][C@@]1(C)CC[C@H]2[C@H]3[C@@H]4[C@H](C[C@@H](C)[C@@](C)(N=C=O)[C@H]4CC[C@@H]31)C[C@@H]2C,9.4
2,CC(C)=CCC[C@@H](C)[C@H]1CC[C@](C)(N=C=S)[C@H]2CCC(C)=C[C@H]12,> 30200
3,[C-]#[N+][C@@]1(C)CC[C@H]2[C@@H]3[C@@H]1CC[C@@H](C)[C@]3(/C=C/C(=C)C)C[C@@H]2C,289
4,[C-]#[N+][C@@]1(C)CC[C@H]2[C@H]3[C@@H](C(=C)CC[C@@H]31)[C@H](CC(=C)C)C[C@@H]2C,1750
5,[C-]#[N+][C@@]1(C)CC[C@H]2[C@H]3C(=C(C)CC[C@@H]31)[C@@H](C=C(C)C)C[C@@H]2C,197
6,[C-]#[N+][C@@]1(C)CC[C@H]2[C@H]3[C@@H](C(=C)CC[C@@H]31)[C@@H](C=C(C)C)C[C@@H]2C,47.4
7,[C-]#[N+][C@]1(C)[C@H](C)C[C@@H]2C[C@H](C)[C@H]3CC[C@](C)(N=C=O)[C@H]4CC[C@H]1[C@@H]2[C@H]34,220
8,C=C[C@H]1C[C@H](C)[C@H]2CC[C@](C)(N=C=S)[C@H]3CCC(=C)[C@]1(O)[C@H]23,2310
9,[C-]#[N+][C@]1(C)[C@H](C)C[C@@H]2C[C@H](C)[C@H]3CC[C@](C)(N=C=S)[C@H]4CC[C@H]1[C@@H]2[C@H]34,126
10,[C-]#[N+][C@]1(C)[C@H](C)C[C@@H]2C[C@H](C)[C@H]3CC[C@](C)([N+]#[C-])[C@H]4CC[C@H]1[C@@H]2[C@H]34 [DIISOCYANOADOCIANE],14.5

# Results, then the compound that gave them:
row,IC50 [nM],Compound
1,1320,[C-]#[N+][C@@]1(C)CC[C@H]2[C@H]3[C@@H](C(=C)CC[C@@H]31)[C@H](CC(C)(C)N=C=S)C[C@@H]2C
2,249,[C-]#[N+][C@@]1(C)CC[C@H]2[C@H]3[C@H]4C(=CC(C)(C)C[C@@H]4C[C@@H]2C)CC[C@@H]31
3,285,[C-]#[N+][C@@]1(C)CC[C@H]2[C@H]3[C@H]4C(=CC[C@@H]31)CC(C)(C)C[C@@H]4C[C@@H]2C
4,210,[C-]#[N+][C@@]1(C)CC[C@H]2[C@H]3[C@H]4[C@H](CC[C@@H]31)[C@H](C)C(C)=C[C@@H]4C[C@@H]2C
5,1020,[C-]#[N+][C@@]1(C)CC[C@H]2[C@H]3[C@@H](C(C)=CC[C@@H]31)[C@H](C=C(C)C)C[C@@H]2C
